Where a name gives a salt, the structure may show the parent alone.
Tests used:
[1] = system: passive cutaneous anaphylaxis (PCA) in rats; experiment: 48 hr homologous passive cutaneous anaphylaxis (PCA) in rats; assay type: in vivo, male Wistar rats; conditions: 1 hr prior to challenge with antigen; for inhibition in vivo at 1 mg/kg: Rattus norvegicus, po, read-out: the percent inhibition of PCA in rats
Experimental: The following compounds were used as the reference compounds. 1.48 hr homologous passive cutaneous anaphylaxis (PCA) in rats a) Preparation of DNP-As and rat anti-DNP-As serum Ascaris extract coupled with 2,4-dinitrophenyl group (DNP-As) was prepared by the method of Koda et al. (Folia pharmacol. japon., 78, 319-334, 1981) and anti-DNP-As containing IgE antibody serum was prepared by the method of Tada and Okumura (J. Immunol., 106, 1019-1025, 1971). […] b) 48 hr homologous passive cutaneous anaphylaxis (PCA) in rats Male Wistar rats weighing 160 to 220 g were sensitized passively by intradermal injection in the back, of 0.05 ml of anti-DNP-As serum, diluted 21-fold with saline. […] After additional thirty minutes, the animals were killed by stunning and the skins were removed. The intensity of the response was evaluated by assaying the amount of dye leaked according to the method of Katayama et al. (Microbiol. Immunol., 22, 89-101, 1978). […] Test compounds were given orally in a dose 1.0 mg/kg 1 hr prior to challenge with antigen. As a control, 5 ml/kg of vehicle (0.5% CMC) alone were given in a similar manner.

[2] = system: hexobarbital-induced anesthesia in mice; set-up: species or system male ddY mice; conditions: mouse, in vivo
Description: The results of 48 hr homologous passive cutaneous anaphylaxis (PCA) in rats with the monitoring of antiallergic activity and potentiation of hexobarbital-induced anesthesia in mice with the monitoring of central nervous depressive activity are summarized in Table 1. The following compounds were used as the reference compounds.
2. Potentiation of hexobarbital-induced anesthesia in mice
The loss of righting reflex induced by hexobarbital was used as an index of anesthesia. Groups of eight male ddY mice (20-24 hr fasted) weighing 19 to 27 g were treated orally with the test compounds (30 mg/kg) or vehicle. Thirty minutes later, 80 mg/kg of hexobarbital sodium were injected i.p. to the animals and the duration of loss of righting reflex was observed. The percent increase of sleeping time was calculated using the following formula: [formula]

| SMILES | inhibition in vivo at 1 mg/kg [1] [%] | the percent increase of hexobarbital-induced anesthesia in mice [2] [%] | the percent inhibition of PCA in rats ([1]; 1 mg/kg, p.o., hydrochloride) [%] |
| --- | --- | --- | --- |
| Cl.O=C(O)CCCN1CCC(OC(c2ccccc2)c2ccccc2Cl)CC1 (racemic) [Example 112, (±)-4-[(2-Chlorophenyl)phenylmethoxy]-1-piperidinebutyric acid hydrochloride] | 53 | 29 | – |
| Cl.O=C(O)CCCCN1CCC(OC(c2ccccc2)c2ccc(F)cc2)CC1 (racemic) [Example 116, (±)-4-[(4-Fluorophenyl)phenylmethoxy]-1-piperidinevaleric acid hydrochloride] | 83 | 31 | – |
| COc1ccc(C(OC2CCN(CCCC(=O)O)CC2)c2ccccc2)cc1.Cl (racemic) [Example 87, (±)-4-[(4-Methoxyphenyl)phenylmethoxy]-1-piperidinebutyric acid hydrochloride] | 54 | 18 | – |
| Cc1ccc(C(OC2CCN(CCCCCC(=O)O)CC2)c2ccccc2)cc1.Cl (single isomer, unassigned; (-)) [Example 126, (-)-4-[(4-Methylphenyl)phenylmethoxy]-1-piperidinecaproic acid hydrochloride] | – | -1 | 36 |
| CCc1ccc(C(OC2CCN(CCCCCC(=O)O)CC2)c2ccccc2)cc1.Cl (racemic) [Example 77, (±)-4-[(4-Ethylphenyl)phenylmethoxy]-1-piperidinecaproic acid hydrochloride] | 68 | 24 | – |
| Cl.O=C(O)CCN1CCC(OC(c2ccccc2)c2ccccc2)CC1 [Example 65, 4-(Diphenylmethoxy)-1-piperidinepropionic acid hydrochloride] | 62 | 29 | – |
| COC(=O)CCCCCN1CCC(OC(c2ccccc2)c2ccc(C)cc2)CC1.Cl (racemic) [Example 1, (±)-Methyl 4-[(4-methylphenyl)phenylmethoxy]-1-piperidinecaproate hydrochloride] | 77 | 16 | – |
| Cc1ccc(C(OC2CCN(CCCC(=O)O)CC2)c2ccccc2)cc1.Cl (racemic) [Example 71, (±)-4-[(4-Methylphenyl)phenylmethoxy]-1-piperidinebutyric acid hydrochloride] | 65 | 3 | – |
| Cc1ccc(C(OC2CCN(CCCCCC(=O)O)CC2)c2ccccc2)cc1.Cl (racemic) [Example 64, (±)-4-[(4-Methylphenyl)phenylmethoxy]-1-piperidinecaproic acid hydrochloride] | 68 | -8 | – |
| COC(=O)CCCCCN1CCC(OC(c2ccccc2)c2ccc(C)cc2)CC1.Cl (single isomer, unassigned; (+)) [Example 62, (+)-Methyl 4-[(4-methylphenyl)phenylmethoxy]-1-piperidinecaproate hydrochloride] | 56 | 29 | – |
| Cc1ccc(C(OC2CCN(CCCCCCCC(=O)O)CC2)c2ccccc2)cc1.Cl (racemic) [Example 74, (±)-4-[(4-Methylphenyl)phenylmethoxy]-1-piperidineoctanoic acid hydrochloride] | 59 | 21 | – |
| CN1CCC(OC(c2ccccc2)c2ccccc2)CC1 [Reference compound A, diphenylpyraline hydrochloride, reference compound] | -1 | 75 | – |
| COc1ccc(C(OC2CCN(CCCCCC(=O)O)CC2)c2ccccc2)cc1.Cl (racemic) [Example 89, (±)-4-[(4-Methoxyphenyl)phenylmethoxy]-1-piperidinecaproic acid hydrochloride] | 71 | 20 | – |
| COc1ccc(C(OC2CCN(CCC(=O)O)CC2)c2ccccc2)cc1.Cl (racemic) [Example 86, (±)-4-[(4-Methoxyphenyl)phenylmethoxy]-1-piperidinepropionic acid hydrochloride] | 60 | 4 | – |
| Cl.O=C(O)CCCCN1CCC(OC(c2ccc(F)cc2)c2ccc(F)cc2)CC1 [Example 120, 4-[Bis(4-fluorophenyl)methoxy]-1-piperidinevaleric acid hydrochloride] | 64 | -12 | – |
| Cc1ccc(C(OC2CCN(CCCCCC(=O)O)CC2)c2ccccc2)cc1.Cl (single isomer, unassigned; (+)) [Example 125, (+)-4-[(4-Methylphenyl)phenylmethoxy]-1-piperidinecaproic acid hydrochloride] | 55 | 29 | – |
| CCOC(=O)Oc1ccc(C=CC=CC(=O)NCCN2CCC(OC(c3ccccc3)c3ccccc3)CC2)cc1OC [Reference compound B, N-[2-[4-(diphenylmethoxy)piperidino]ethyl]-5-[4-(ethoxycarbonyloxy)-3-methoxyphenyl]-2,4-pentadienoylamide, reference compound] | 8 | 35 | – |
| Cc1ccc(C(OC2CCN(CCC(=O)O)CC2)c2ccccc2)cc1.Cl (racemic) [Example 70, (±)-4-[(4-Methylphenyl)phenylmethoxy]-1-piperidinepropionic acid hydrochloride] | 51 | -2 | – |
| Cc1ccc(C(OC2CCN(CCCCCCC(=O)O)CC2)c2ccccc2)cc1.Cl (racemic) [Example 73, (±)-4-[(4-Methylphenyl)phenylmethoxy]-1-piperidineheptanoic acid hydrochloride] | 67 | 2 | – |
| Cc1ccc(C(OC2CCN(CCCCC(=O)O)CC2)c2ccccc2)cc1.Cl (racemic) [Example 72, (±)-4-[(4-Methylphenyl)phenylmethoxy]-1-piperidinevaleric acid hydrochloride] | 63 | 12 | – |
| Cl.O=C(O)CCCN1CCC(OC(c2ccccc2)c2ccc(F)cc2)CC1 (racemic) [Example 115, (±)-4-[(4-Fluorophenyl)phenylmethoxy]-1-piperidinebutyric acid hydrochloride] | 73 | 21 | – |

From US5153207A, “Piperidine derivative, method for preparation thereof, and a pharmaceutical composition comprising the same” (Hokuriku Pharmaceutical Co., Ltd., priority 1989, dated 1992)
